The numbers were not newly measured in patent publication US20110251275A1, “OMEGA-3 FATTY ACIDS FOR REDUCTION OF LP-PLA2 LEVELS” (priority 2006, published 2011), which cites them from elsewhere.

Molecules are shown by their SMILES.

The test system of the data set is Lp-PLA2. The note with it: for reduction of Lp-PLA2: Tsimihodimos et al. 2002, patients treated.

For the compound `CC(C)c1c(C(=O)Nc2ccccc2)c(-c2ccccc2)c(-c2ccc(F)cc2)n1CC[C@@H](O)C[C@@H](O)CC(=O)O` [atorvastatin], the “reduction of Lp-PLA2” value is 28-42%. Under “O'Donoghue et al. 2006”, the “reduced Lp-PLA2 levels” value is on record as 20%. For the compound `CC(C)OC(=O)C(C)(C)Oc1ccc(C(=O)c2ccc(Cl)cc2)cc1` [fenofibrate, 2-[4-(4-chlorobenzoyl)phenoxy]-2-methyl-propanoic acid, 1-methylethyl ester], the “reduction of Lp-PLA2” value is recorded as 22-28%.
